Results published in PubChem BioAssay AID330 (DTP/NCI, 2004).
Several values for one entry are separate records, joined by “and”; a condition that tells them apart may be missing. Identical values can stand only once. Toxic doses and inconclusive results are not listed. Rule for the calls: active = survival T/C of 150% or more; inactive = T/C below 125% in these data.

Test system: P388 leukemia ip, CD2F1 mice, survival T/C
Assay: NCI In Vivo Anticancer Drug Screen. Data for tumor model P388 Leukemia (intraperitoneal) in CD2F1 (CDF1) mice
Details: endpoint: median survival time, higher = longer survival
Summary of the method: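 Mice carrying the transplanted tumor received test compound or vehicle. Survival was recorded in each group, and the value is the treated-group measurement divided by that of the vehicle-treated control group.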

[1] = dose: 12.5 mg/kg/injection, schedule: Q01DX009 (ip), vehicle: saline with Tween-80
[2] = dose: 25.0 mg/kg/injection, schedule: Q01DX009 (ip), vehicle: saline with Tween-80
[3] = dose: 50.0 mg/kg/injection, schedule: Q04DX003 (ip), vehicle: saline with Tween-80
[4] = dose: 50.0 mg/kg/injection, schedule: Q01DX009 (ip), vehicle: saline with Tween-80
[5] = dose: 3.12 mg/kg/injection, schedule: Q01DX009 (ip), vehicle: distilled water + Tween-80
[6] = dose: 6.25 mg/kg/injection, schedule: Q01DX009 (ip), vehicle: saline with Tween-80
[7] = dose: 100.0 mg/kg/injection, schedule: Q01DX009 (ip), vehicle: saline with Tween-80
[8] = dose: 100.0 mg/kg/injection, schedule: Q04DX003 (ip), vehicle: saline with Tween-80
[9] = dose: 200.0 mg/kg/injection, schedule: Q04DX003 (ip), vehicle: saline with Tween-80
[10] = dose: 60.0 mg/kg/injection, schedule: Q01DX005 (ip), vehicle: saline with Tween-80
[11] = dose: 120.0 mg/kg/injection, schedule: Q01DX005 (ip), vehicle: saline with Tween-80
[12] = dose: 240.0 mg/kg/injection, schedule: Q01DX005 (ip), vehicle: saline with Tween-80
[13] = dose: 100.0 mg/kg/injection, schedule: Q01DX001 (ip), vehicle: saline with Tween-80
[14] = dose: 200.0 mg/kg/injection, schedule: Q01DX001 (ip), vehicle: saline with Tween-80
[15] = dose: 400.0 mg/kg/injection, schedule: Q01DX001 (ip), vehicle: saline with Tween-80

Measured: T/C

Nc1nc2c(c(=O)[nH]1)NC(CCNc1ccc(C(=O)O)cc1)CN2 (centres undefined)
inactive: [1] 104 % of control | dose: 12.5 mg/kg/injection, schedule: Q04DX003 (ip), vehicle: saline with Tween-80 90 % of control | [2] 113 % of control | dose: 25.0 mg/kg/injection, schedule: Q04DX003 (ip), vehicle: saline with Tween-80 95 % of control | [3] 113 % of control

COc1ccc2[nH]cc(CCN(C)C)c2c1
inactive: [1] 115 % of control | dose: 16.5 mg/kg/injection, schedule: Q01DX009 (ip), vehicle: saline with Tween-80 113 % of control | [2] 104 % of control | dose: 37.5 mg/kg/injection, schedule: Q01DX009 (ip), vehicle: saline with Tween-80 109 % of control | [4] 115 % of control

CC1C(O)=C(c2ccccc2)P(=O)(Cc2ccccc2)C1C (centres undefined)
inactive: dose: 60.0 mg/kg/injection, schedule: Q01DX005 (ip), vehicle: saline 101 % of control | dose: 120.0 mg/kg/injection, schedule: Q01DX005 (ip), vehicle: saline 100 % of control | dose: 240.0 mg/kg/injection, schedule: Q01DX005 (ip), vehicle: saline 93 % of control

CNC(=O)OCc1cn(-c2ccc(Cl)c(Cl)c2)nc1COC(=O)NC
inactive: dose: 0.05 mg/kg/injection, schedule: Q01DX009 (ip), vehicle: distilled water + Tween-80 103 % of control | dose: 0.1 mg/kg/injection, schedule: Q01DX009 (ip), vehicle: distilled water + Tween-80 86 % of control | dose: 0.2 mg/kg/injection, schedule: Q01DX009 (ip), vehicle: distilled water + Tween-80 94 % of control | dose: 0.4 mg/kg/injection, schedule: Q01DX009 (ip), vehicle: distilled water + Tween-80 99 % of control | [5] 88 % of control | dose: 25.0 mg/kg/injection, schedule: Q01DX009 (ip), vehicle: distilled water + Tween-80 89 % of control | dose: 50.0 mg/kg/injection, schedule: Q01DX009 (ip), vehicle: distilled water + Tween-80 92 % of control | dose: 100.0 mg/kg/injection, schedule: Q01DX009 (ip), vehicle: distilled water + Tween-80 90 % of control

Cc1ccc2c(c1)sc1nncn12
inactive: dose: 50.0 mg/kg/injection, schedule: Q01DX009 (ip), vehicle: Klucel (hydroxypropylcellulose) (HPC) 94 % of control | dose: 100.0 mg/kg/injection, schedule: Q01DX009 (ip), vehicle: Klucel (hydroxypropylcellulose) (HPC) 105 % of control

S=c1nn[nH]n1-c1ccccc1.[Cd]
inactive: dose: 3.13 mg/kg/injection, schedule: Q01DX009 (ip), vehicle: saline with Tween-80 98 % of control | [6] 94 % of control

CNCCc1ccc2cc(OC)c(OC)cc2c1
inactive: [2] 90 % of control | [4] 100 % of control | [7] 100 % of control

CCOC(=O)/C(=C\c1ccccc1)O/C(=C/c1ccccc1)C(=O)OCC
inactive: dose: 12.5 mg/kg/injection, schedule: Q04DX002 (ip), vehicle: saline with Tween-80 100 % of control | dose: 25.0 mg/kg/injection, schedule: Q04DX002 (ip), vehicle: saline with Tween-80 97 % of control | dose: 50.0 mg/kg/injection, schedule: Q04DX002 (ip), vehicle: saline with Tween-80 99 % of control

CC(=O)c1c(O)c(C)c(C)c2c1OC(=O)C2C (centres undefined)
inactive: dose: 3.12 mg/kg/injection, schedule: Q01DX009 (ip), vehicle: saline with Tween-80 109 % of control | [6] 116 % of control | [1] 108 % of control

COC(=O)c1ccc(C)cc1C(=O)OC
inactive: [3] 100 % of control | [8] 100 % of control | [9] 104 % of control

[Cu+].[NH-]CCCN=Cc1ccccc1O
inactive: dose: 25.0 mg/kg/injection, schedule: Q01DX001 (ip), vehicle: saline sonified 95 % of control | dose: 50.0 mg/kg/injection, schedule: Q01DX001 (ip), vehicle: saline sonified 105 % of control

CN(C)C1C(=O)c2ccccc2C1=O
inactive: [10] 96 % of control | [11] 107 % of control | [12] 112 % of control

c1ccc(Cn2nnnc2-c2ccccc2)cc1
inactive: [8] 100 % of control | [9] 96 % of control | dose: 400.0 mg/kg/injection, schedule: Q04DX003 (ip), vehicle: saline with Tween-80 88 % of control

COc1ccc(C2=C/C(=C/c3ccc(N(CCC#N)CCC#N)cc3)C(=O)O2)cc1
inactive: [13] 97 % of control | [14] 95 % of control | [15] 92 % of control

CCOC(=O)C1=C(C#N)C(C(=O)OCC)c2ncccc21 (centres undefined)
inactive: dose: 25.0 mg/kg/injection, schedule: Q01DX009 (ip), vehicle: suspension in saline 93 % of control | dose: 50.0 mg/kg/injection, schedule: Q01DX009 (ip), vehicle: suspension in saline 93 % of control | dose: 100.0 mg/kg/injection, schedule: Q01DX009 (ip), vehicle: suspension in saline 100 % of control | dose: 200.0 mg/kg/injection, schedule: Q01DX009 (ip), vehicle: suspension in saline 92 % of control

NC(=S)N/N=C/c1ccncc1
inactive: [2] 108 % of control | [4] 98 % of control | [7] 101 % of control | dose: 200.0 mg/kg/injection, schedule: Q01DX009 (ip), vehicle: saline with Tween-80 92 % of control

CCN(CC)CCSCCCNc1cc(C)nc2c1ccc1c2ccc2c(NCCCSCCN(CC)CC)cc(C)nc21
inactive: dose: 1.56 mg/kg/injection, schedule: Q01DX009 (ip), vehicle: distilled water + Tween-80 100 % of control | [5] 102 % of control | dose: 6.25 mg/kg/injection, schedule: Q01DX009 (ip), vehicle: distilled water + Tween-80 104 % of control | dose: 12.5 mg/kg/injection, schedule: Q01DX009 (ip), vehicle: distilled water + Tween-80 100 % of control

Nc1c(S(=O)(=O)O)cc(Nc2cccc(CO)c2)c2c1C(=O)c1ccccc1C2=O
inactive: dose: 12.5 mg/kg/injection, schedule: Q01DX001 (ip), vehicle: saline 99 % of control | dose: 25.0 mg/kg/injection, schedule: Q01DX001 (ip), vehicle: saline 99 % of control | dose: 50.0 mg/kg/injection, schedule: Q01DX001 (ip), vehicle: saline 98 % of control | dose: 100.0 mg/kg/injection, schedule: Q01DX001 (ip), vehicle: saline 106 % of control

CN(C)NCCCCCNN(C)C
inactive: dose: 50.0 mg/kg/injection, schedule: Q01DX005 (ip), vehicle: Klucel (hydroxypropylcellulose) (HPC) 100 % of control | dose: 100.0 mg/kg/injection, schedule: Q01DX005 (ip), vehicle: Klucel (hydroxypropylcellulose) (HPC) 102 % of control | dose: 200.0 mg/kg/injection, schedule: Q01DX005 (ip), vehicle: Klucel (hydroxypropylcellulose) (HPC) 102 % of control

CCC(/C=C/c1ccccc1)=N\Nc1ccc(C)cc1
inactive: [10] 107 % of control | [11] 117 % of control | [12] 114 % of control

CN(C(=O)C(Cl)Cl)c1ccc(-c2csc(-c3ccc(O)cc3)n2)cc1
inactive: dose: 100.0 mg/kg/injection, schedule: Q04DX003 (ip), vehicle: Klucel (hydroxypropylcellulose) (HPC) 100 % of control | dose: 200.0 mg/kg/injection, schedule: Q04DX003 (ip), vehicle: Klucel (hydroxypropylcellulose) (HPC) 99 % of control | dose: 400.0 mg/kg/injection, schedule: Q04DX003 (ip), vehicle: Klucel (hydroxypropylcellulose) (HPC) 99 % of control

CCOC(=O)/C(Cl)=C(\C)Nc1nc2c(ccc3ccccc32)s1
inactive: [10] 98 % of control | [11] 90 % of control

CC(=O)c1ccc[n+](Cc2c(Cl)cccc2Cl)c1
inactive: dose: 6.25 mg/kg/injection, schedule: Q01DX009 (ip), vehicle: saline 101 % of control | dose: 12.5 mg/kg/injection, schedule: Q01DX009 (ip), vehicle: saline 100 % of control and 104 % of control | dose: 25.0 mg/kg/injection, schedule: Q01DX009 (ip), vehicle: saline 101 % of control and 114 % of control

O=C(Nc1ccc(F)cc1F)Oc1ccc2cc(Br)ccc2c1
inactive: dose: 50.0 mg/kg/injection, schedule: Q01DX009 (ip), vehicle: saline + alcohol 97 % of control | dose: 100.0 mg/kg/injection, schedule: Q01DX009 (ip), vehicle: saline + alcohol 91 % of control | dose: 200.0 mg/kg/injection, schedule: Q01DX009 (ip), vehicle: saline + alcohol 100 % of control

Cc1ccc(C)c2c1[nH]c1c(C)c3ccncc3c(C)c12
inactive: [13] 100 % of control | [14] 104 % of control | [15] 120 % of control
